# Test results: PMC8100298, “Histone deacetylase inhibitor resminostat in combination with sorafenib counteracts platelet-mediated pro-tumoral effects in hepatocellular carcinoma” (Scientific Reports, 2021)
# Where two headings read alike, the source gives them in different places.
# How the values were obtained:
# IGROV1 = test: Efficacy screening assay; type: cell-based; settings: IGROV1, ovary
# Procedure: (§1) The experiment was performed by Oncolead GmbH & Co. KG (Karlsfeld , Germany), based on a standardized screening procedure . Cell lines were purchased directly from the ATCC, NCI and DSMZ cell line c ollections. Cells used for the study had undergone less than 20 passages. To ensure the absence of potential contamination and wrong assignment, all cell lines were tested using a whole genome assay (Agilent, USA). All cell lines were grown as recommended by the suppliers and with addition of 100 U/mL penicillin G and 100 µg/mL; streptomycin. Cell growth and treatments were performed in Nunclon D 96 -well plates (NUNC, Germany). The optimal seeding density for each cell line was determined to ensure exponential growth for the duration of the experiment. All cells growing without anti-cancer agents were sub-conﬂuent by the end of the treatment, as determined by visual inspection.
# (§2) After an initial 24 h pre-growth period, the compounds were added. The vehicle concentration […]
# (§3) was 0.1% DMSO. After incubation at 37°C for 72 h, the culture medium was aspirated, and the cells were precipitated by the addition of 10% trichloroacetic acid (Sigma-Aldrich, Missouri, US). After overnight incubation at 4°C, the plates were washed three times with deionized water. The precipitates were then stained with SRB (0.4% wt/v sulforhodamine B solution in 1% acetic acid, Sigma-Aldrich, Missouri, US). Afterwards, the plates were washed six times with 1% acetic acid to remove unbound stain. After drying the plates at room temperature, the bound SRB was solubilized with 10 mM Tris base and the optical density was measured at 520 nm using a Victor2 plate reader (Perkin Elmer, Germany). Blank OD values were subtracted from mean OD values for each concentration. The nonlinear curve ﬁtting and EC50 calculations were per formed using XLﬁt and algorithm “205” (ID Business […]
# (§4) Multiplicity adjusted p-values with 95% confidence interval was applied. For the invasion assays in Figure 4, one-way ANOVA with multiple comparison testing (Tukey) was performed. Multiplicity adjusted p-values with 95% confidence interval was applied. The adjusted p-values comparing vehicle control without vs. with platelets and compound
# MG63 = test: Efficacy screening assay; type: cell-based; settings: MG63, bone
# Procedure: as §1, §2, §3, §4
# JIMT1 = test: Efficacy screening assay; type: cell-based; settings: JIMT1, breast
# Procedure: as §1, §2, §3, §4
# MDAMB435 = test: Efficacy screening assay; type: cell-based; settings: MDAMB435, skin
# Procedure: as §1, §2, §3, §4
# [1] = test system: Hep3B2.1-7 human hepatic carcinoma; settings: for Survival / Tumour weight, Mean: 21 days; for Tumour weight, Mean: SCID mice
# Excerpt: The orthotopic xenograft mouse model of Hep3B2.1–7 human hepatic carcinoma was previously established. Tumors were created by injection of 2.5 × 10^6 Hep3B2.1-7 cells (ATCC, RRID:CVCL_0326; Virginia, Manassas, USA) into the main lobe of the liver of anaesthetized female SCID mice (C.B-17-Igh-1bPrkdc(scid)). […] Treatments were continued for 21 days. Treatment of animals was ceased when the body weight dropped below 85% of that on entry of the study. Only mice culled at the termination date were used to determine the tumor weight. The experiment was conducted by vivoPharm pty Ltd (Bundoora, Australia) in accordance with the principles outlined in the “Australian Code of Practice for the Care and Use of Animals for Scientific Purposes”, 7th Edition, 2004 (National Health and Medical Research Council, Canberra, Australia). All procedures involving animals were reviewed and approved by the University of Adelaide Animal Ethics Committee. The study was carried out in compliance with the ARRIVE guidelines (http://www.nc3rs.org.uk/page.asp?id=1357). […]
# invasion assay. The ODs of the invaded cells were normalized relative to ODs from tissue […]
# Orthotopic xenograft mouse model
# The orthotopic xenograft mouse model of Hep3B2.1-7 human hepatic carcinom a was previously established. The experiment was conducted by vivoPharm pty Ltd (Australia) in accordance with the principles outlined in the Australian Code of Practice for the Care and Use of Animals for Scientific Purposes, 7th Edition, 2004 (National Health and Medical Research Council). Procedures involving the care and use of animals in thi s study were reviewed and approved by the University of Adelaide Animal Ethics Committee. The study was carried out in compliance with the ARRIVE guidelines
# (http://www.nc3rs.org.uk/page.asp?id=1357).
# The animals were delivered to the test facility 1 1 days prior inoculation. On arrival, all animals received a detailed physical examination, including body weight measurement by the […]
# technical staff. […] Each a nimal was identified by a transponder (Bar Code Data Systems Pty Ltd, Botany Bay, NSW, Australia) that could be scanned with a barcode reader (DataMars LabMax I). The transponder was implanted by subcutaneous injection between the shoulder blades while the mouse was under isoflurane-induced anaesthesia. The animals were housed in groups of six in micro-isolator cages (two cages per group). Each cage was clearly labelled with a cage card indicating study number, group, gender, and prescribed dose concentration and dose volume. The animals were kept in a controlled environment (targeted ranges: temperature 21 ± 3°C, humidity 30 -70%, 15 air changes per hour), with a light/dark cycle each of 12 hours, and under barrier (quarantine) conditions. Temperature and relative humidity were monitored continuously. All animals were subjected to the same environmental conditions. A standard certified commercial rodent diet (Rat and Mouse Cubes, Specialty Feeds Pty Ltd, Glen Forrest, WA, Australia) and tap water were provided to the animals ad libitum. Food supply was sterilized by autoclaving, and water […]
# supply was sterilized by acidification with hydrochloric acid (pH 2.4-2.7) by Laboratory Animal Services, University of Adelaide (Adelaide, SA, Australia). Additional feed (a nimal seed, Magill Grain Store, Magill, SA, Australia), as well as wet standard feed was provided to all animals from Day 7 onwards, as a measure to minimize body w eight loss. The extent of adverse reaction was assessed during the study and mice were culled if severe adverse […]
# The age range of the mice were 12-16 weeks at
# Hep3B2.1-7 human hepatic carcinoma cells were sourced from the American Type Culture […]
# Collection (ATCC; Virginia, USA).
# [2] = test system: Class I HDAC1, 2, 3, and 8; class II b HDAC6 and 10; and class IV HDAC11; test: In vitro HDAC activity assay; type: biochemical, human; settings: in words, from IC50 calculation (Fig. S1A)
# Procedure: In vitro HDAC inhibition assay
# The half maximal HDAC-inhibitory concentrations (IC50) of resminostat w ere determined by
# in vitro HDAC activity assays (Reaction Biology Corporation RBC, Pennsylvania, USA). For
# the assay, resminostat was dissolved in DMSO and a dilution series with 10 concentrations
# was used. The inhibitory activity of resminostat was tested on purified recombinant human
# HDAC1-11. HDAC1-11 were produced using a baculovirus express ion system (human
# HDAC1: cat# 50051, BPS, California, US; human HDAC2: cat# KDA-21-277, RBC,
# Pennsylvania, USA; human HDAC3: cat# KDA -22-278, RBC, Pennsylvania, USA; human
# HDAC4: cat# 50004 BPS, California, US; human HDAC5: cat# KDA-21-280, RBC, […]
# activities of HDAC1 to 11 were assessed using acetylated AMC (7-amino-4-methycoumarin)-
# labelled fluorogenic peptide substrates: fluorogenic peptide from p53 residues 379-382 (RHKK(Ac)AMC) for HDAC1, 2, 3, 6, 10, 11; fluorogenic HDAC Class IIa Substrate (Trifluoro acetyl Lysine, Ac-LGK(TFA)-AMC) for HDAC 4, 5, 7, 9; and fluorogenic peptide from p53 residues 379-382 (RHK(Ac)K(Ac)AMC) for HDAC8. […] In a second step, the deacetylated products were digested by the addition of developer for 1 h at 30°C to produce the fluorescent signal proportional to the amount of deacetylated substrates and the fluorescence was measured using an Envision plate reader at 355 nm (excitation) and 460 nm (emission). […]
structure (smiles),measurement,setting,value
"CN(C)Cc1ccc(S(=O)(=O)n2ccc(/C=C/C(=O)NO)c2)cc1 [resminostat, Resminostat]",EC50,"IGROV1; Homo sapiens, IGROV-1, 72 h, log of EC50, negative, read-out: log(EC50) (converted)",1910 nM
same,EC50,"IGROV1; Homo sapiens, IGROV-1, 72 h, read-out: EC50",1880 nM
same,EC50,"IGROV1; 72 h, read-out: EC50",1880 nM
same,EC50,"MG63; Homo sapiens, MG-63, 72 h, log of EC50, negative, read-out: log(EC50) (converted)",1740 nM
same,EC50,"MG63; Homo sapiens, MG-63, 72 h, read-out: EC50",1760 nM
same,EC50,"MG63; 72 h, read-out: EC50",1750 nM
same,EC50,"JIMT1; Homo sapiens, JIMT-1, 72 h, log of EC50, negative, read-out: log(EC50) (converted)",3020 nM
same,EC50,"JIMT1; Homo sapiens, JIMT-1, 72 h, read-out: EC50",3030 nM
same,EC50,"JIMT1; 72 h, read-out: EC50",3030 nM
same,EC50,"MDAMB435; Homo sapiens, MDA-MB-435, 72 h, log of EC50, negative, read-out: log(EC50) (converted)",2090 nM
same,EC50,"MDAMB435; Homo sapiens, MDA-MB-435, 72 h, read-out: EC50",2110 nM
same,EC50,"MDAMB435; 72 h, read-out: EC50",2110 nM
same,Survival,[1]; 15 mg/kg oral once daily,10/12
same,"Tumour weight, Mean",[1]; 15 mg/kg oral once daily,2.55 g
same,Survival,[1]; 40 mg/kg oral once daily,10/12
same,"Tumour weight, Mean",[1]; 40 mg/kg oral once daily,1.83 g
same,tumor weight compared to the vehicle control,"[1]; daily resminostat 15 and 40 mg/kg, sorafenib 40 mg/kg, or combination (Fig. 1B)",significantly reduced tumor weight
same,inhibition of HDAC activity,[2],inhibits the activity
